These results are taken from patent publication US4908360A, “1-aminoalkyl-3-oxysubstituted-4-aryl-1,3,4,5-tetr ahydro-2H-1,3-benzodiazepine-2-ones” (Hoechst-Roussel Pharmaceuticals Inc., priority 1988, dated 1990).

Assay [1] has as its system 2-phenyl-1,4-benzoquinone-induced writhing in mice. Nature of the assay: 2-phenyl-1,4-benzoquinone-induced writhing test in mice (analgesia). The format is in vivo. The following applies: subcutaneous. An excerpt:
Compounds of the present invention are useful as analgesic agents due to their ability to alleviate pain in mammals. […] Exptl. Biol. Med. 95,729 (1957)].

Assay [2] has as its target T1, nitrendipine binding (ventricle membranes) (Rattus norvegicus, UniProt P22002).
T1 construct: These resuspension and recentrifugation steps are repeated twice more to wash the ventricle membranes; from tissue; host or cells: heart ventricle membranes of male Wistar rats
In words: nitrendipine binding assay (calcium ion antagonism), [3H]-nitrendipine, rat heart ventricle membranes. Conditions: 1 h, pH 7.4, 25° C., one hour; for Increase in [3H]-nitrendipine binding (%) at 20 µM: concentration 2.0 (moles) × 10^-5. Set-up: species or system Male Wistar rats. The protocol: The compounds of the present invention are also useful as calcium ion antagonists which are useful to control cardiovascular activities, including potential antihypertensive activity. Calcium ion antagonism is measured in the nitrendipine binding assay.
The nitrendipine binding assay is carried out in the following manner. The reagents employed are (1) 0.5 M tris Buffer, pH 7.4, prepared by combining 66.1 g of Tris HCl, 9.7 g of Tris base in 1 liter of distilled water and thereafter making a 1:10 dilution in distilled water; (2) [5-methyl-^3H]-Nitrendipine (70-81 Ci/mmol, obtained from New England Nuclear; and (3) Nifedipine. Tissue is prepared as follows. Male Wistar rats are killed by decapitation, hearts are removed and the ventricles are dissected away from the aorta and aortic tissue. The ventricles are rinsed and homogenized in 19 volumes of ice-cold 0.05 M Tris buffer, pH 7.4 using a Tekmar homogenizer. The homogenate is filtered through four layers of cheese cloth and centrifuged at 1,000 g for 10 minutes. The supernatant is decanted and recentrifuged at 48,000 g for 20 minutes. The resulting pellet is resuspended in the original volume of Tris buffer and recentrifuged at 48,000 g for 20 minutes. These resuspension and recentrifugation steps are repeated twice more to wash the ventricle membranes. The final pellet is resuspended in the original volume of 0.05 M Tris buffer. The assay itself employs 500 ul of ventricle membrane suspension; 50 ul of 0.5 M Tris buffer, pH 7.4; […] [^3 H]-nitrendipine; 20 μl of candidate drug; 380 μl of water in a test tube and is carried out in a darkened room. The test tubes are incubated for one hour at 25° C. […] The filters are washed three times with 5 ml of ice-cold 0.05 M Tris buffer, pH 7.4 and counted in 10 ml of Liquiscint scintillation cocktail. Specific binding is determined by the difference of total binding and binding in the presence of 0.1 μM nifedipine and is roughly 70-75% of the total binding. […] IC50 values for the competing drug are calculated by log-probit analysis of the data.

Molecules are shown by their SMILES.

T1 sequence (P22002 whole entry, other chains not shown): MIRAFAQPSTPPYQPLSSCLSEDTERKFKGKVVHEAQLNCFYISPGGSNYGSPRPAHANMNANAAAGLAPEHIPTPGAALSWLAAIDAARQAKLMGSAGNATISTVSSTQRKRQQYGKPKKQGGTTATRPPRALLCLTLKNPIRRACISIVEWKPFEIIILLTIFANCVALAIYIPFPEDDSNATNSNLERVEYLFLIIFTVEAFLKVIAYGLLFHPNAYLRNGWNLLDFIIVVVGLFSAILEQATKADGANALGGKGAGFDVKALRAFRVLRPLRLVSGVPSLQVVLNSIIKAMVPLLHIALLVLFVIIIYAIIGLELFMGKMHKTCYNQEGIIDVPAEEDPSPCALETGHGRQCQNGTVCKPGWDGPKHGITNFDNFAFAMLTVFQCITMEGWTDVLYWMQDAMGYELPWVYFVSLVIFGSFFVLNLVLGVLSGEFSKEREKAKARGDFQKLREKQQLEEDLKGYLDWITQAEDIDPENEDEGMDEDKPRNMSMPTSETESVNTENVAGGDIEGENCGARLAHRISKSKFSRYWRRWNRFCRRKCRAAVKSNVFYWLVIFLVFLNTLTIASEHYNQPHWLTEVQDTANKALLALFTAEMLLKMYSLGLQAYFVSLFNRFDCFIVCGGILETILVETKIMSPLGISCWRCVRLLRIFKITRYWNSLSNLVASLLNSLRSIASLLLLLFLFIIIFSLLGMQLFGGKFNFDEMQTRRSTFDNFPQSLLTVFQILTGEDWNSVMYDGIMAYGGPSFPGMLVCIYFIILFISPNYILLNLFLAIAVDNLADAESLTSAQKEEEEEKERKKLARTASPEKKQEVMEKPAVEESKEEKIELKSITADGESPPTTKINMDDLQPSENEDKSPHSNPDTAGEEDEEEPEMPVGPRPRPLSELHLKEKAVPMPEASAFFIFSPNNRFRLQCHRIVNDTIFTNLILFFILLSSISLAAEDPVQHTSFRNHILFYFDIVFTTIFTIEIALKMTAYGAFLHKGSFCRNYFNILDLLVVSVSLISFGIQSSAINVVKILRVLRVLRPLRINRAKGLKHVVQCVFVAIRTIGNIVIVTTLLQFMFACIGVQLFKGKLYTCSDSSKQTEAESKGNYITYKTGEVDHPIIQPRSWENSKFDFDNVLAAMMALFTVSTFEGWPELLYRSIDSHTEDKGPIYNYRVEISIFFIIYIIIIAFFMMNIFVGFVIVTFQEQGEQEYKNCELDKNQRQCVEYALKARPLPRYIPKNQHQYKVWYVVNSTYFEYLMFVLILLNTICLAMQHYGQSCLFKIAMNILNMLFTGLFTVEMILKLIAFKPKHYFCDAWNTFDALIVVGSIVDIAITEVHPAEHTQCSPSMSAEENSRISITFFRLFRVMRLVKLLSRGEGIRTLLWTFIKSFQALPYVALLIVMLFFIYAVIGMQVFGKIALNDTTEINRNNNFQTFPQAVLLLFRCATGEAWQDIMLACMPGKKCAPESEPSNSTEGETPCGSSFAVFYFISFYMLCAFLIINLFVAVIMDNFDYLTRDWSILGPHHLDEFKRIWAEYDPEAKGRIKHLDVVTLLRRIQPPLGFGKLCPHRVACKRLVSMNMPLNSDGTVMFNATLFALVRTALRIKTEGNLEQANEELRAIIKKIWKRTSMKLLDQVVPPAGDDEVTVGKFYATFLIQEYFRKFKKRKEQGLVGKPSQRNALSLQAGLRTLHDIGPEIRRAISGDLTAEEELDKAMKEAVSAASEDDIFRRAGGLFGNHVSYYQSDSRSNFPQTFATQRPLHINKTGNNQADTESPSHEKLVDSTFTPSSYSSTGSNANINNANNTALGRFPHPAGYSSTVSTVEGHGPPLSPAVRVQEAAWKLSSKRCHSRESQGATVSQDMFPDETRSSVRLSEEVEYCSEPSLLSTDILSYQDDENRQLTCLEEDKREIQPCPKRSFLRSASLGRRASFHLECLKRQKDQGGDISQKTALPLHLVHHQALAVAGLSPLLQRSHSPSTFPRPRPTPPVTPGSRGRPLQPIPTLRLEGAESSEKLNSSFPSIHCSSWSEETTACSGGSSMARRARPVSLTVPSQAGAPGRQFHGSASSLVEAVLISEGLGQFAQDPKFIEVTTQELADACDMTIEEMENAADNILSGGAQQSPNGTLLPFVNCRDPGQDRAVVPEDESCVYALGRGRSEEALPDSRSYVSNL
T1 sequence (P54290 25-945 partner limits assumed, other chains not shown): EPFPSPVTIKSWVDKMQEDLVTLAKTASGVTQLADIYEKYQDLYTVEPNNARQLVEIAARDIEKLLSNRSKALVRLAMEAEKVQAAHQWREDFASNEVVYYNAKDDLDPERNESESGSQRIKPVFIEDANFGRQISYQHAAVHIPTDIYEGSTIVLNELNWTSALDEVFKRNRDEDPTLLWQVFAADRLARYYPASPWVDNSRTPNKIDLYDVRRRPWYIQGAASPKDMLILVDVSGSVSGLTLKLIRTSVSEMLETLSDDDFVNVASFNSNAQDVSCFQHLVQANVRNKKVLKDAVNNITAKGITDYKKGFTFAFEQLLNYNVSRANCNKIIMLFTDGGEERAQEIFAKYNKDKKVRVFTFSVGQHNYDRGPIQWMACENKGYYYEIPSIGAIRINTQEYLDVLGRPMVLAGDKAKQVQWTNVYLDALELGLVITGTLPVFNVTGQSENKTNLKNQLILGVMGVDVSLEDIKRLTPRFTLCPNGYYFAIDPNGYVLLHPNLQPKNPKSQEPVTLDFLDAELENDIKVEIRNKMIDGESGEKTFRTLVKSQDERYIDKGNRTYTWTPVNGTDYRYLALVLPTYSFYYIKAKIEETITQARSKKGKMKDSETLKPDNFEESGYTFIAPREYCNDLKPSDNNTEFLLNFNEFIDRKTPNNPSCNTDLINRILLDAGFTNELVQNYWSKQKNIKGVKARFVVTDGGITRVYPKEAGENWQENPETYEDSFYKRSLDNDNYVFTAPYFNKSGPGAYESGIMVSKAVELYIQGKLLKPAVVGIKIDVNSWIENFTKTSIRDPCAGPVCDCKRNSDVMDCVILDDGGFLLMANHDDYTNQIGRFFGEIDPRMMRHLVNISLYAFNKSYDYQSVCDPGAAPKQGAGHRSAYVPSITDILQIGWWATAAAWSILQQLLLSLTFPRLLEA
T1 sequence (P54290 946-1091 partner limits assumed, other chains not shown): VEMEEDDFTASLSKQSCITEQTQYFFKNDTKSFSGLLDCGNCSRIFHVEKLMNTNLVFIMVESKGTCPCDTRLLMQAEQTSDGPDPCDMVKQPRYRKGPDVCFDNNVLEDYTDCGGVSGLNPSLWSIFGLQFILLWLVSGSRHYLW

On to `CON1C(=O)N(CCN(C)C)c2ccccc2CC1c1ccccc1` (racemic) [(±) -1-[2-(N,N-dimethylamino)ethyl]-3-methoxy-4-phenyl-1,3,4,5-tetrahydro-2H-1,3-benzodiazepine-2-one], for which the “Inhibition in Writhing (%)” value in assay [1] (20 mg/kg of body weight) was 37%. The Increase in [3H]-nitrendipine binding (%) at 20 µM in assay [2] was found to be 27.6%.

For `COc1ccc([C@@H]2Sc3ccccc3N(CCN(C)C)C(=O)[C@@H]2OC(C)=O)cc1` [diltiazem, reference compound], the Increase in [3H]-nitrendipine binding (%) at 10 µM in assay [2] (concentration 1.0 (moles) × 10^-5, standard) is 85%. In the case of `CON1C(=O)N(CCCN(C)C)c2ccccc2CC1c1ccccc1` (racemic) [(±) -1-[3-(N,N-Dimethylamino)propyl]-3-methoxy-4-phenyl-1,3,4,5-tetrahydro-2H-1,3-benzodiazepine-2-one], in assay [1] (20 mg/kg of body weight), the “Inhibition in Writhing (%)” value was 37%. Further, the Increase in [3H]-nitrendipine binding (%) at 20 µM in assay [2] turned out to be 25.7%.

`CN1CC[C@@]23CCCC[C@@H]2[C@@H]1Cc1ccc(O)cc13` [dextrorphan, reference compound]: the “Inhibition in Writhing (%)” value in assay [1] (15.1 mg/kg of body weight) turned out to be 50%.
